Laboratory results reported in patent publication US10611740B2, “Aryl dihydro-2H-benzo[b][1,4]oxazine sulfonamide and related compounds for use as agonists of RORγ and the treatment of disease” (Lycera Corporation, priority 2015, dated 2020).

Target: T1, Gal4-RORγ-LBD (Homo sapiens, UniProt P51449)
T1 construct: expressed in transfected cells; host or cells: HEK-293 cells (pcDNA3.1neo plasmid)
T1 sequence (P51449 269-508 limits assumed): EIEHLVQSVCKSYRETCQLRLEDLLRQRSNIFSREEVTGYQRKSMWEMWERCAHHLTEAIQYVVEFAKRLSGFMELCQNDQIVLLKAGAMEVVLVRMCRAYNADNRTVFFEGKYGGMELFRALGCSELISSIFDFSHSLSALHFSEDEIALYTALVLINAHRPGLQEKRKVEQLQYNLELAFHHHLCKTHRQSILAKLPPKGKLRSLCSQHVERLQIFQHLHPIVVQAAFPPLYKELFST
Assay: Gal4-RORγ Luciferase Reporter Assay in HEK-293T Cells
Type: cell-based
Settings: HEK-293 cells, 2 μM ursolic acid
Protocol: Assay procedures and results are described below.
In the following protocol, HEK-293 cells were transfected with a construct comprising the Gal4 DNA binding domain fused to the ligand binding domain of RORγ (Gal4-RORγ-LBD) in a pcDNA3.1neo plasmid, and also with a reporter construct comprising pGL4.31 Gal4-luciferase (Promega). Control cells were prepared similarly using empty pcDNA3.1neo and pGL4.31 vectors.
Trans-IT reagent (Mirus, 60 μL) at room temperature was added drop wise to OptiMEM (Invitrogen, 1.5 ml). This reagent mixture was mixed by inversion then incubated for 5 to 30 minutes at room temperature. It then was added to a solution of both expression vectors (5 μg each), mixed, and incubated at room temperature for about 20 minutes. HEK-293 cells were harvested from incubation flasks by removing the media, treating with TrypLE Express (Invitrogen), and incubating until the cells detached from the bottom of the flask (approximately 2-5 minutes). 10 Million cells were collected by centrifugation and re-suspended in 10 mL of Dulbecco's Modified Eagle Medium, High Glucose (DMEM, Invitrogen) containing 10% Fetal Bovine Serum and 100 IU each of penicillin and streptomycin. The re-suspended cells and the transfection mixture were added to a T75 flask, mixed and incubated overnight at 37° C. and 5% CO2.
The cells were harvested as described above, counted, and centrifuged to obtain the desired number of cells, then re-suspended in complete growth media at 0.75×10^6 cells/mL. The RORγ antagonist, ursolic acid, was added to the cells at a final concentration of 2 μM. Cells were plated at 20 μL of cell suspension/well (10,000-15,000 cells/well) in white tissue culture treated 384 well plates. Test compounds were dissolved at 10 mM in DMSO then diluted into complete growth medium to 5× the final intended test concentration. These drug stock solutions, 5 μL/well were added to the tissue culture plate. The final DMSO concentration was 0.2%. The plates were briefly centrifuged then incubated overnight at 37° C. and 5% CO2. To conduct the assay, the tissue culture plates were allowed to equilibrate to room temperature and One-Glo luciferase reagent (Promega, 25 μL/well) was added. The plates were briefly centrifuged then incubated at room temperature for 10 minutes. The luciferase intensity was read on an Envision plate reader (Perkin Elmer). […] The luciferase signal in the absence of ursolic acid or test compound is defined at 100. The Max Response is the upper plateau in the signal as determined by line-fit using a 4-parameter logistic model in PRISM (GraphPad).

SMILES	EC50	Gal4-RORγ Assay Max Response
O=C(O)[C@@]1(C[C@H]2CN(S(=O)(=O)c3cccc(C(F)(F)F)c3)c3cc(-c4cc(F)cc(OC(F)F)c4)ccc3O2)C[C@@H](O)[C@@H](O)C1 [Compound 65, (1r,3R,4S)-1-(((S)-6-(3-(difluoromethoxy)-5-fluorophenyl)-4-((3-(trifluoromethyl)phenyl)sulfonyl)-3,4-dihydro-2H-benzo[b][1,4]oxazin-2-yl)methyl)-3,4-dihydroxycyclopentane-1-carboxylic acid]	500 to 5000 nM	** (The symbol “**” indicates a value in the range of greater than 90 to 150)
O=C(O)[C@]1(C[C@H]2CN(S(=O)(=O)c3cccc(C(F)(F)F)c3)c3cc(-c4cc(F)cc(OC(F)F)c4)ccc3O2)C[C@H](O)C1 [Compound 67, (1s,3S)-1-(((S)-6-(3-(difluoromethoxy)-5-fluorophenyl)-4-((3-(trifluoromethyl)phenyl)sulfonyl)-3,4-dihydro-2H-benzo[b][1,4]oxazin-2-yl)methyl)-3-hydroxycyclobutane-1-carboxylic acid]	< 500 nM	** (The symbol “**” indicates a value in the range of greater than 90 to 150)
O=C(O)[C@]1(C[C@H]2CN(S(=O)(=O)c3cccc(C(F)(F)F)c3)c3cc(-c4cc(F)cc(OC(F)F)c4)ccc3O2)C[C@@H](O)C1 [Compound 68, (1r,3R)-1-(((S)-6-(3-(difluoromethoxy)-5-fluorophenyl)-4-((3-(trifluoromethyl)phenyl)sulfonyl)-3,4-dihydro-2H-benzo[b][1,4]oxazin-2-yl)methyl)-3-hydroxycyclobutane-1-carboxylic acid]	< 500 nM	** (The symbol “**” indicates a value in the range of greater than 90 to 150)
C[C@]1(C(=O)O)C[C@H](C[C@H]2CN(S(=O)(=O)c3cccc(C(F)(F)F)c3)c3cc(-c4cc(F)cc(OC(F)F)c4)ccc3O2)C1 [Compound 69, (1S,3r)-3-(((S)-6-(3-(difluoromethoxy)-5-fluorophenyl)-4-((3-(trifluoromethyl)phenyl)sulfonyl)-3,4-dihydro-2H-benzo[b][1,4]oxazin-2-yl)methyl)-1-methylcyclobutane-1-carboxylic acid]	500 to 5000 nM	** (The symbol “**” indicates a value in the range of greater than 90 to 150)
C[C@]1(C(=O)O)C[C@@H](C[C@H]2CN(S(=O)(=O)c3cccc(C(F)(F)F)c3)c3cc(-c4cc(F)cc(OC(F)F)c4)ccc3O2)C1 [Compound 70, (1R,3s)-3-(((S)-6-(3-(difluoromethoxy)-5-fluorophenyl)-4-((3-(trifluoromethyl)phenyl)sulfonyl)-3,4-dihydro-2H-benzo[b][1,4]oxazin-2-yl)methyl)-1-methylcyclobutane-1-carboxylic acid]	500 to 5000 nM	*** (The symbol “***” indicates a value in the range of greater than 150 to 200)
O=C(O)C1(C[C@H]2CN(S(=O)(=O)c3cccc(C(F)(F)F)c3)c3cc(-c4cccc(OC(F)(F)F)c4)ccc3O2)CCOCC1 [Compound 78K, (S)-4-((6-(3-(trifluoromethoxy)-phenyl)-4-((3-(trifluoromethyl)-phenyl)sulfonyl)-3,4-dihydro-2H-benzo[b][1.4]oxazin-2-yl)methyl)tetrahydro-2H-pyran-4-carboxylic acid]	< 500 nM	** (The symbol “**” indicates a value in the range of greater than 90 to 150)
COc1cc(Cl)cc(-c2ccc3c(c2)N(S(=O)(=O)c2cccc(C(F)(F)F)c2)C[C@H](CC2(C(=O)O)CCOCC2)O3)c1 [Compound 78L, (S)-4-((6-(3-chloro-5-methoxy-phenyl)-4-((3-(trifluoromethyl)-phenyl)sulfonyl)-3,4-dihydro-2H-benzo[b][1,4]oxazin-2-yl)methyl)tetrahydro-2H-pyran-4-carboxylic acid]	< 500 nM	** (The symbol “**” indicates a value in the range of greater than 90 to 150)
O=C(O)C1(C[C@H]2CN(S(=O)(=O)c3cccc(C(F)(F)F)c3)c3cc(-c4cccc(F)c4Cl)ccc3O2)CCOCC1 [Compound 78M, (S)-4-((6-(2-chloro-3-fluoro-phenyl)-4-((3-(trifluoromethyl)-phenyl)sulfonyl)-3,4-dihydro-2H-benzo[b][1,4]oxazin-2-yl)methyl)tetrahydro-2H-pyran-4-carboxylic acid]	< 500 nM	*** (The symbol “***” indicates a value in the range of greater than 150 to 200)
O=C(O)C1(C[C@H]2CN(S(=O)(=O)c3cccc(C(F)(F)F)c3)c3cc(-c4cc(F)cc(F)c4)ccc3O2)CCOCC1 [Compound 78N, (S)-4-((6-(3,5-difluorophenyl)-4-((3-(trifluoromethyl)phenyl)-sulfonyl)-3,4-dihydro-2H-benzo[b][1,4]oxazin-2-yl)methyl)tetrahydro-2H-pyran-4-carboxylic acid]	< 500 nM	** (The symbol “**” indicates a value in the range of greater than 90 to 150)
O=C(O)C1(C[C@H]2CN(S(=O)(=O)c3cccc(C(F)(F)F)c3)c3cc(-c4cc(F)cc(C(F)(F)F)c4)ccc3O2)CCOCC1 [Compound 78O, (S)-4-((6-(3-fluoro-5-(trifluoro-methyl)phenyl)-4-((3-(trifluoro-methyl)phenyl)sulfonyl)-3,4-dihydro-2H-benzo[b][1,4]oxazin-2-yl)methyl)tetrahydro-2H-pyran-4-carboxylic acid]	< 500 nM	** (The symbol “**” indicates a value in the range of greater than 90 to 150)
O=C(O)C1(C[C@H]2CN(S(=O)(=O)c3cccc(C(F)(F)F)c3)c3cc(-c4cccc(F)c4F)ccc3O2)CCOCC1 [Compound 78P, (S)-4-((6-(2,3-difluorophenyl)-4-((3-(trifluoromethyl)phenyl)-sulfonyl)-3,4-dihydro-2H-benzo[b][1,4]oxazin-2-yl)methyl)tetrahydro-2H-pyran-4-carboxylic acid]	< 500 nM	** (The symbol “**” indicates a value in the range of greater than 90 to 150)
Cc1cc(F)cc(-c2ccc3c(c2)N(S(=O)(=O)c2cccc(C(F)(F)F)c2)C[C@H](CC2(C(=O)O)CCOCC2)O3)c1 [Compound 78Q, (S)-4-((6-(3-fluoro-5-methyl-phenyl)-4-((3-(trifluoromethyl)-phenyl)sulfonyl)-3,4-dihydro-2H-benzo[b][1,4]oxazin-2-yl)methyl)tetrahydro-2H-pyran-4-carboxylic acid]	< 500 nM	** (The symbol “**” indicates a value in the range of greater than 90 to 150)
COc1cc(F)cc(-c2ccc3c(c2)N(S(=O)(=O)c2cccc(C(F)(F)F)c2)C[C@H](CC2(C(=O)O)CCOCC2)O3)c1 [Compound 78R, (S)-4-((6-(3-fluoro-5-methoxy-phenyl)-4-((3-(trifluoromethyl)-phenyl)sulfonyl)-3,4-dihydro-2H-benzo[b][1,4]oxazin-2-yl)methyl)tetrahydro-2H-pyran-4-carboxylic acid]	< 500 nM	** (The symbol “**” indicates a value in the range of greater than 90 to 150)
